Reference: patent US11253532B2, “Composition for promoting increase in androgen” (Kobayashi Pharmaceutical Co., Ltd., priority 2016, dated 2022)

System: cells of testes collected from mice (primary culture)
Assay: Test Example 1: testosterone secretion from primary culture of mouse testes cells, measured by EIA
Type: cell-based, mice (ddY strain)
Conditions: 2-hour culture
Method: 2 mL of 50% ethanol was added to 4 mg/vial of compound K (trade name: Ginsenoside CK, 0150S, Extrasynthese S.A.) to dissolve compound K, and the obtained solution was suitably diluted with a DME/F-12 medium (Nacalai Tesque) containing 0.1% bovine serum albumin (BSA) (“0.1% BSA-DME/F-12”) to prepare a sample.
Testes were collected from mice (ddY strain, male, 7 to 8 weeks old), and subjected to primary culture. Specifically, testes were subjected to collagenase treatment (Worthington, Type 2, 0.05%, 37° C., 15 minutes) to disperse cells, and adjusted to 3×10^5 cells/0.5 mL in a DME/F-12 medium containing 10% fetal bovine serum (FBS). The cells were then seeded into a 24-well plate, and cultured overnight. After culture, the cells were washed with PBS(−) (Dulbecco's PBS (0.2 g/L of potassium chloride, 0.2 g/L of monopotassium phosphate, 8 g/L of sodium chloride, 1.15 g/L of anhydrous disodium phosphate, pH of 7.4, an isotonic solution, ion content: (mEq)Na^+ 148, K^+ 4, Cl^− 139)). The prepared sample was then added to the cells to give a volume of 1/10, together with a 0.1% BSA-DME/F-12 medium, and the concentration of compound K in the wells was adjusted to 1 μg/mL, 10 μg/mL, and 100 μg/mL.
A mixture solution of 50% ethanol and 0.1% BSA-DME/F-12 was prepared in place of the sample in the same manner as above, except that compound K was not added; this mixture was added to the cells to give a volume of 1/10 as above, thereby preparing a control (the concentration of compound K: 0 μg/mL).
After 2-hour culture, the medium was collected, and the testosterone levels in the mediums were measured by enzyme immunoassay (EIA).
Specifically, a goat anti-rabbit IgG antibody (2 μg/well) was added to a 96-well microplate (Nunc, Denmark), and the plate was coated at room temperature for 1 hour. After washing, a blocking agent (0.14M NaCl, 0.02% thimerosal, 1% BSA, 0.01M phosphate buffer, pH of 7.4) was added thereto to perform blocking at room temperature for 15 minutes. […] The absorbance at 490 nm was measured with a microplate reader to determine the testosterone secretion level.

CC(C)=CCC[C@](C)(O[C@@H]1O[C@H](CO)[C@@H](O)[C@H](O)[C@H]1O)[C@H]1CC[C@]2(C)[C@@H]1[C@H](O)C[C@@H]1[C@@]3(C)CC[C@H](O)C(C)(C)[C@@H]3CC[C@]12C [compound K, 20(S)-protopanaxadiol 20-O-β-d-glucopyranoside (M1)]
testosterone level in a medium (compound K 1 μg/mL, not shown in FIG. 1): increased testosterone level | testosterone level in a medium (compound K 10 μg/mL, versus medium free from compound K (0 μg/mL), FIG. 1): higher | testosterone level in a medium (compound K 100 μg/mL, versus medium free from compound K (0 μg/mL), FIG. 1): higher
